Measurements: publication PMC9516332 (Frontiers in Oncology, 2022)
Like-named read-outs stand apart in the source and are kept apart here.

Columns and labels:
Test in all cases: Kinase panel profiling at 1 µmol/L (MSA or IMAP), percentage inhibition
Assay type in all cases: biochemical
[1] = target: T1, panel of 255 wild-type kinases (Homo sapiens, UniProt O14965); conditions: 1 µmol/L single concentration
T1 sequence (O14965 1-403): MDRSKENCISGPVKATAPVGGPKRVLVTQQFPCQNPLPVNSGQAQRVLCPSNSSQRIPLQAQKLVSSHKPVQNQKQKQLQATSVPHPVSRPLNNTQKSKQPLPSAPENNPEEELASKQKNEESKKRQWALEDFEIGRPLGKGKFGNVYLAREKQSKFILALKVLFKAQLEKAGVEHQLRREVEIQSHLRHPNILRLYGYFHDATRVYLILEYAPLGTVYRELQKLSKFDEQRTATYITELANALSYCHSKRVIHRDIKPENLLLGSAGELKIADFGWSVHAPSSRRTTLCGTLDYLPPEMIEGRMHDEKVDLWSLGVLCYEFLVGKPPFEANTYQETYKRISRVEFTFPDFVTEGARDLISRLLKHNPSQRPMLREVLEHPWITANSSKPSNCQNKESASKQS

[2] = target: panel of 255 wild-type kinases (Homo sapiens, UniProt O94804); conditions: kinase LOK; 1 µmol/L single concentration; read-out: %-inhibition at 1 µmol/L, LOK
[3] = target: panel of 255 wild-type kinases (Homo sapiens, UniProt O96013); conditions: PAK4; 1 µmol/L single concentration; read-out: %-inhibition, PAK4
[4] = target: panel of 255 wild-type kinases (Homo sapiens, UniProt P06241); conditions: kinase FYN [isoform a]; 1 µmol/L single concentration; read-out: %-inhibition at 1 µmol/L, FYN [isoform a]
[5] = target: panel of 255 wild-type kinases (Homo sapiens, UniProt P11309); conditions: kinase PIM1; 1 µmol/L single concentration; read-out: %-inhibition at 1 µmol/L, PIM1
[6] = target: panel of 255 wild-type kinases (Homo sapiens, UniProt P19525); conditions: kinase PKR; 1 µmol/L single concentration; read-out: %-inhibition at 1 µmol/L, PKR
[7] = target: panel of 255 wild-type kinases (Homo sapiens, UniProt P42685); conditions: kinase FRK; 1 µmol/L single concentration; read-out: %-inhibition at 1 µmol/L, FRK
[8] = target: panel of 255 wild-type kinases (Homo sapiens, UniProt P49841); conditions: kinase GSK3β; 1 µmol/L single concentration
[9] = target: panel of 255 wild-type kinases (Homo sapiens, UniProt P51957); conditions: NEK4; 1 µmol/L single concentration; read-out: %-inhibition, NEK4
[10] = target: panel of 255 wild-type kinases (Homo sapiens, UniProt P53350); conditions: kinase PLK1; 1 µmol/L single concentration; read-out: %-inhibition at 1 µmol/L, PLK1
[11] = target: panel of 255 wild-type kinases (Homo sapiens, UniProt P53355); conditions: kinase DAPK1; 1 µmol/L single concentration; read-out: %-inhibition at 1 µmol/L, DAPK1
[12] = target: panel of 255 wild-type kinases (Homo sapiens, UniProt P57059); conditions: kinase SIK; 1 µmol/L single concentration; read-out: %-inhibition at 1 µmol/L, SIK
[13] = target: panel of 255 wild-type kinases (Homo sapiens, UniProt P78368); conditions: kinase CK1γ2; 1 µmol/L single concentration; read-out: %-inhibition at 1 µmol/L, CK1γ2
[14] = target: panel of 255 wild-type kinases (Homo sapiens, UniProt Q00535); conditions: CDK5/p25 kinase assay; 1 µmol/L single concentration; read-out: %-inhibition CDK5/p25
[15] = target: panel of 255 wild-type kinases (Homo sapiens, UniProt Q16816); conditions: kinase PHKG1; 1 µmol/L single concentration; read-out: %-inhibition at 1 µmol/L, PHKG1
[16] = target: panel of 255 wild-type kinases (Homo sapiens, UniProt Q5VT25); conditions: MRCKα; 1 µmol/L single concentration; read-out: %-inhibition, MRCKα
[17] = target: T2, panel of 255 wild-type kinases (Homo sapiens, UniProt Q92630); conditions: kinase DYRK2; 1 µmol/L single concentration; read-out: %-inhibition at 1 µmol/L, DYRK2
T2 sequence (Q92630 1-601): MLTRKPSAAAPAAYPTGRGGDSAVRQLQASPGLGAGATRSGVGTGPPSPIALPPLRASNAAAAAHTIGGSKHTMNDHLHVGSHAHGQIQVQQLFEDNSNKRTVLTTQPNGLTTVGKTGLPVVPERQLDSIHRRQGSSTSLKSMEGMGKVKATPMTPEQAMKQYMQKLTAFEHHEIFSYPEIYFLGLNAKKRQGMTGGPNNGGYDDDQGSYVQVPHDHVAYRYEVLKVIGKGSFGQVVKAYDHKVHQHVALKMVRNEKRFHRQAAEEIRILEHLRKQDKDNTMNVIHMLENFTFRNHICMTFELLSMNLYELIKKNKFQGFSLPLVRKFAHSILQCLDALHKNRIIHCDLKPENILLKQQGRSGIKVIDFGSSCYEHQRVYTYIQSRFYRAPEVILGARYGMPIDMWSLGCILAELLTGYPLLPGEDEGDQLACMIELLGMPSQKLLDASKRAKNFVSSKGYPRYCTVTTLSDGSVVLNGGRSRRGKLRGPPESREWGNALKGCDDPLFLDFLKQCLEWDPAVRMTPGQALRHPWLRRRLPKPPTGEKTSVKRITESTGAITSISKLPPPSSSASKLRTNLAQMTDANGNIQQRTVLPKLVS

[18] = target: panel of 255 wild-type kinases (Homo sapiens, UniProt Q9Y2H1); conditions: NDR2; 1 µmol/L single concentration; read-out: %-inhibition, NDR2
[19] = AurA kinase assay, read-out: %-inhibition AurA
[20] = AurA/TPX2 kinase assay, read-out: %-inhibition AurA/TPX2

COc1cc2ncnc(Nc3ccc(F)c(Cl)c3)c2cc1NC(=O)/C=C/CN1CCCCC1 [dacomitinib]
inhibition at 1 µM [1, 19]: -1.72%
inhibition at 1 µM [1, 20]: 1%
inhibition at 1 µM [2]: 86%
inhibition at 1 µM [3]: -3.66%
inhibition at 1 µM [4]: 32%
inhibition at 1 µM [5]: 32%
inhibition at 1 µM [6]: 3.25%
inhibition at 1 µM [7]: 70%
inhibition at 1 µM [8]: 11%
inhibition at 1 µM [9]: -2.15%
inhibition at 1 µM [10]: 3.78%
inhibition at 1 µM [11]: -7%
inhibition at 1 µM [12]: 40%
inhibition at 1 µM [13]: -1.63%
inhibition at 1 µM [14]: -29%
inhibition at 1 µM [15]: 25%
inhibition at 1 µM [16]: 4.59%
inhibition at 1 µM [17]: 38%
inhibition at 1 µM [18]: -1.58%

CCn1c(=O)c(-c2cc(NC(=O)Nc3ccccc3)c(F)cc2Br)cc2cnc(NC)cc21 [ripretinib]
inhibition at 1 µM [1, 19]: -2%
inhibition at 1 µM [1, 20]: -0.807%
inhibition at 1 µM [2]: 53%
inhibition at 1 µM [3]: 0.34%
inhibition at 1 µM [4]: 23%
inhibition at 1 µM [5]: -5%
inhibition at 1 µM [6]: -6%
inhibition at 1 µM [7]: 87%
inhibition at 1 µM [8]: -0.349%
inhibition at 1 µM [9]: 19%
inhibition at 1 µM [10]: 4%
inhibition at 1 µM [11]: -10%
inhibition at 1 µM [12]: 66%
inhibition at 1 µM [13]: -2.31%
inhibition at 1 µM [14]: -19%
inhibition at 1 µM [15]: 1.76%
inhibition at 1 µM [16]: -1.14%
inhibition at 1 µM [17]: 4.57%
inhibition at 1 µM [18]: 2.69%

Cc1nc(NC(=O)N2CCC[C@H]2C(N)=O)sc1-c1ccnc(C(C)(C)C(F)(F)F)c1 [alpelisib]
inhibition at 1 µM [1, 19]: -0.801%
inhibition at 1 µM [1, 20]: -0.57%
inhibition at 1 µM [2]: -7%
inhibition at 1 µM [3]: 0.0966%
inhibition at 1 µM [4]: 1.52%
inhibition at 1 µM [5]: 4%
inhibition at 1 µM [6]: -1%
inhibition at 1 µM [7]: -2.26%
inhibition at 1 µM [8]: -4%
inhibition at 1 µM [9]: -3%
inhibition at 1 µM [10]: 0.0286%
inhibition at 1 µM [11]: -3%
inhibition at 1 µM [12]: -10%
inhibition at 1 µM [13]: -1.58%
inhibition at 1 µM [14]: -14%
inhibition at 1 µM [15]: -1.22%
inhibition at 1 µM [16]: -2%
inhibition at 1 µM [17]: 7%
inhibition at 1 µM [18]: -2%

O=C(Nc1cnn2ccc(N3CCC[C@@H]3c3cc(F)ccc3F)nc12)N1CC[C@H](O)C1 [larotrectinib]
inhibition at 1 µM [1, 19]: -4.5%
inhibition at 1 µM [1, 20]: -3%
inhibition at 1 µM [2]: 5.3%
inhibition at 1 µM [3]: -4.61%
inhibition at 1 µM [4]: 1.82%
inhibition at 1 µM [5]: -5.32%
inhibition at 1 µM [6]: -2.17%
inhibition at 1 µM [7]: -0.308%
inhibition at 1 µM [8]: -11%
inhibition at 1 µM [9]: 0.695%
inhibition at 1 µM [10]: -1.17%
inhibition at 1 µM [11]: -4%
inhibition at 1 µM [12]: -1.7%
inhibition at 1 µM [13]: -7%
inhibition at 1 µM [14]: -22%
inhibition at 1 µM [15]: 1.81%
inhibition at 1 µM [16]: 0.38%
inhibition at 1 µM [17]: 6%
inhibition at 1 µM [18]: -4.33%

Cc1cc(Nc2ncnc3ccc(NC4=NC(C)(C)CO4)cc23)ccc1Oc1ccn2ncnc2c1 [tucatinib]
inhibition at 1 µM [1, 19]: -1.53%
inhibition at 1 µM [1, 20]: -9%
inhibition at 1 µM [2]: 6.43%
inhibition at 1 µM [3]: 5%
inhibition at 1 µM [4]: 2.29%
inhibition at 1 µM [5]: -3.59%
inhibition at 1 µM [6]: 3.37%
inhibition at 1 µM [7]: -2.17%
inhibition at 1 µM [8]: 8%
inhibition at 1 µM [9]: 2.39%
inhibition at 1 µM [10]: -3.69%
inhibition at 1 µM [11]: 1.6%
inhibition at 1 µM [12]: 0.717%
inhibition at 1 µM [13]: -4%
inhibition at 1 µM [14]: -5%
inhibition at 1 µM [15]: -3.62%
inhibition at 1 µM [16]: 0.364%
inhibition at 1 µM [17]: 8.45%
inhibition at 1 µM [18]: -0.504%

FC(F)(F)c1ccc(CNc2ccc(Cc3c[nH]c4ncc(Cl)cc34)cn2)cn1 [pexidartinib]
inhibition at 1 µM [1, 19]: 44%
inhibition at 1 µM [1, 20]: 21%
inhibition at 1 µM [2]: 25%
inhibition at 1 µM [3]: 11%
inhibition at 1 µM [4]: -9%
inhibition at 1 µM [5]: -3.77%
inhibition at 1 µM [6]: -10%
inhibition at 1 µM [7]: 5.44%
inhibition at 1 µM [8]: 4.44%
inhibition at 1 µM [9]: 2.69%
inhibition at 1 µM [10]: 6.33%
inhibition at 1 µM [11]: -9%
inhibition at 1 µM [12]: 9%
inhibition at 1 µM [13]: -0.864%
inhibition at 1 µM [14]: -21%
inhibition at 1 µM [15]: 21%
inhibition at 1 µM [16]: 0.771%
inhibition at 1 µM [17]: 24%
inhibition at 1 µM [18]: 8%

Cn1cnc2c(F)c(Nc3ccc(Br)cc3F)c(C(=O)NOCCO)cc21 [binimetinib]
inhibition at 1 µM [1, 19]: -3%
inhibition at 1 µM [1, 20]: -4%
inhibition at 1 µM [2]: 3.42%
inhibition at 1 µM [3]: -2.71%
inhibition at 1 µM [4]: 3.76%
inhibition at 1 µM [5]: -16%
inhibition at 1 µM [6]: -11%
inhibition at 1 µM [7]: 3%
inhibition at 1 µM [8]: -1.84%
inhibition at 1 µM [9]: -1.67%
inhibition at 1 µM [10]: 0.406%
inhibition at 1 µM [11]: 1.69%
inhibition at 1 µM [12]: 0.277%
inhibition at 1 µM [13]: -0.416%
inhibition at 1 µM [14]: -21%
inhibition at 1 µM [15]: 1.77%
inhibition at 1 µM [16]: -5.53%
inhibition at 1 µM [17]: 6.52%
inhibition at 1 µM [18]: -1.45%

COc1ccc(CN2C3CC2CN(c2ccc(-c4cc(OCC(C)(C)O)cn5ncc(C#N)c45)cn2)C3)cn1 [selpercatinib]
inhibition at 1 µM [1, 19]: 66%
inhibition at 1 µM [1, 20]: 71%
inhibition at 1 µM [2]: 40%
inhibition at 1 µM [3]: 8%
inhibition at 1 µM [4]: 24%
inhibition at 1 µM [5]: -5.68%
inhibition at 1 µM [6]: 0.94%
inhibition at 1 µM [7]: 13%
inhibition at 1 µM [8]: 40%
inhibition at 1 µM [9]: 0.858%
inhibition at 1 µM [10]: -0.437%
inhibition at 1 µM [11]: 26%
inhibition at 1 µM [12]: 9%
inhibition at 1 µM [13]: -2.46%
inhibition at 1 µM [14]: -8.52%
inhibition at 1 µM [15]: 8%
inhibition at 1 µM [16]: -2.65%
inhibition at 1 µM [17]: 66%
inhibition at 1 µM [18]: -4.53%
